Measurements from ChEMBL document CHEMBL4138123, “Design, synthesis and biological evaluation of novel pyrazolochalcones as potential modulators of PI3K/Akt/mTOR pathway and inducers of apoptosis in breast cancer cells” (Eur J Med Chem, 2017).
pIC50: −log10 of the molar value.

How the values were obtained:
UACC-257 [1] = assay: Cytotoxicity against human UACC257 cells assessed as cell growth at 10 uM after 48 hrs by sulforhodamine B assay relative to control; type: functional; conditions: UACC-257, 48 h, read-out: Activity
ACHN = assay: Cytotoxicity against human ACHN cells assessed as cell growth at 0.1 uM after 48 hrs by sulforhodamine B assay relative to control; type: functional; conditions: read-out: Activity
SK-MEL-28 = assay: Cytotoxicity against human SK-MEL-28 cells assessed as cell growth at 10 uM after 48 hrs by sulforhodamine B assay relative to control; type: functional; conditions: SK-MEL-28, 48 h, read-out: Activity
MCF7 [2] = assay: Cytotoxicity against human MCF7 cells assessed as cell growth at 1 uM after 48 hrs by sulforhodamine B assay relative to control; type: functional; conditions: MCF7, 48 h, read-out: Activity
NCI-H522 = assay: Cytotoxicity against human NCI-H522 cells assessed as growth inhibition after 48 hrs by sulforhodamine B assay; type: functional; conditions: NCI-H522, 48 h
SNB-19 = assay: Cytotoxicity against human SNB19 cells assessed as cell growth at 0.01 uM after 48 hrs by sulforhodamine B assay relative to control; type: functional; conditions: SNB-19, 48 h, read-out: Activity
TK-10 = assay: Cytotoxicity against human TK10 cells assessed as growth inhibition after 48 hrs by sulforhodamine B assay; type: functional; conditions: TK-10, 48 h
A549 = assay: Cytotoxicity against human A549/ATCC cells assessed as cell growth at 1 uM after 48 hrs by sulforhodamine B assay relative to control; type: functional; conditions: A549, 48 h, read-out: Activity
A498 [3] = assay: Cytotoxicity against human A498 cells assessed as cell growth at 0.01 uM after 48 hrs by sulforhodamine B assay relative to control; type: functional; conditions: A498, 48 h, read-out: Activity
IGROV-1 = assay: Cytotoxicity against human IGROV1 cells assessed as cell growth at 10 uM after 48 hrs by sulforhodamine B assay relative to control; type: functional; conditions: IGROV-1, 48 h, read-out: Activity
MDA-MB-468 = assay: Cytotoxicity against human MDA-MB-468 cells assessed as cell growth at 0.01 uM after 48 hrs by sulforhodamine B assay relative to control; type: functional; conditions: MDA-MB-468, 48 h, read-out: Activity
SR [4] = assay: Cytotoxicity against human SR cells assessed as cell growth at 0.1 uM after 48 hrs by sulforhodamine B assay relative to control; type: functional; conditions: read-out: Activity
MDA-MB-231 = assay: Cytotoxicity against human MDA-MB-231 cells assessed as cell growth at 1 uM after 48 hrs by sulforhodamine B assay relative to control; type: functional; conditions: MDA-MB-231, 48 h, read-out: Activity
SK-OV-3 = assay: Cytotoxicity against human SKOV3 cells assessed as cell growth at 0.01 uM after 48 hrs by sulforhodamine B assay relative to control; type: functional; conditions: SK-OV-3, 48 h, read-out: Activity
U-251 = assay: Cytotoxicity against human U251 cells assessed as cell growth at 100 uM after 48 hrs by sulforhodamine B assay relative to control; type: functional; conditions: U-251, 48 h, read-out: Activity
RPMI-8226 = assay: Cytotoxicity against human RPMI8226 cells assessed as growth inhibition after 48 hrs by sulforhodamine B assay; type: functional; conditions: RPMI-8226, 48 h
MCF7 [5] = assay: Cytotoxicity against human MCF7 cells assessed as growth inhibition after 48 hrs by MTT assay; type: functional, cell-based; conditions: MCF7, 48 h
BT-549 = assay: Cytotoxicity against human BT549 cells assessed as cell growth at 10 uM after 48 hrs by sulforhodamine B assay relative to control; type: functional; conditions: BT-549, 48 h, read-out: Activity
UACC-62 [6] = assay: Cytotoxicity against human UACC62 cells assessed as cell growth at 10 uM after 48 hrs by sulforhodamine B assay relative to control; type: functional; conditions: UACC-62, 48 h, read-out: Activity
A498 [7] = assay: Cytotoxicity against human A498 cells assessed as cell growth at 100 uM after 48 hrs by sulforhodamine B assay relative to control; type: functional; conditions: A498, 48 h, read-out: Activity
UACC-257 [8] = assay: Cytotoxicity against human UACC257 cells assessed as cell growth at 100 uM after 48 hrs by sulforhodamine B assay relative to control; type: functional; conditions: UACC-257, 48 h, read-out: Activity
UO-31 [9] = assay: Cytotoxicity against human UO31 cells assessed as growth inhibition after 48 hrs by sulforhodamine B assay; type: functional; conditions: UO-31, 48 h
MOLT-4 = assay: Cytotoxicity against human MOLT4 cells assessed as cell growth at 0.01 uM after 48 hrs by sulforhodamine B assay relative to control; type: functional; conditions: MOLT-4, 48 h, read-out: Activity
SR [10] = assay: Cytotoxicity against human SR cells assessed as growth inhibition after 48 hrs by sulforhodamine B assay; type: functional
786-0 [11] = assay: Cytotoxicity against human 786-0 cells assessed as cell growth at 0.01 uM after 48 hrs by sulforhodamine B assay relative to control; type: functional; conditions: 786-0, 48 h, read-out: Activity
SW-620 = assay: Cytotoxicity against human SW620 cells assessed as cell growth at 0.01 uM after 48 hrs by sulforhodamine B assay relative to control; type: functional; conditions: SW-620, 48 h, read-out: Activity
DU-145 = assay: Cytotoxicity against human DU145 cells assessed as cell growth at 0.01 uM after 48 hrs by sulforhodamine B assay relative to control; type: functional; conditions: DU-145, 48 h, read-out: Activity
UACC-62 [12] = assay: Cytotoxicity against human UACC62 cells assessed as growth inhibition after 48 hrs by sulforhodamine B assay; type: functional; conditions: UACC-62, 48 h
OVCAR-3 = assay: Cytotoxicity against human OVCAR3 cells assessed as cell growth at 0.1 uM after 48 hrs by sulforhodamine B assay relative to control; type: functional; conditions: OVCAR-3, 48 h, read-out: Activity
RXF 393 = assay: Cytotoxicity against human RXF393 cells assessed as cell growth at 0.1 uM after 48 hrs by sulforhodamine B assay relative to control; type: functional; conditions: RXF 393, 48 h, read-out: Activity
SK-MEL-5 = assay: Cytotoxicity against human SK-MEL-5 cells assessed as cell growth at 0.1 uM after 48 hrs by sulforhodamine B assay relative to control; type: functional; conditions: SK-MEL-5, 48 h, read-out: Activity
NCI-H226 = assay: Cytotoxicity against human NCI-H226 cells assessed as cell growth at 0.01 uM after 48 hrs by sulforhodamine B assay relative to control; type: functional; conditions: NCI-H226, 48 h, read-out: Activity
UO-31 [13] = assay: Cytotoxicity against human UO31 cells assessed as cell growth at 10 uM after 48 hrs by sulforhodamine B assay relative to control; type: functional; conditions: UO-31, 48 h, read-out: Activity
786-0 [14] = assay: Cytotoxicity against human 786-0 cells assessed as growth inhibition after 48 hrs by sulforhodamine B assay; type: functional; conditions: 786-0, 48 h
A498 [15] = assay: Cytotoxicity against human A498 cells assessed as cell growth at 1 uM after 48 hrs by sulforhodamine B assay relative to control; type: functional; conditions: A498, 48 h, read-out: Activity

COc1ccc(C(=O)/C=C/c2cc(-c3cc(OC)c(OC)c(OC)c3)n[nH]2)cc1
growth at 10 µM (UACC-257 [1]): -65% | growth at 0.1 µM (ACHN): 102% | growth at 10 µM (SK-MEL-28): -55% | growth at 1 µM (MCF7 [2]): 57% | LC50 (NCI-H522): 6.97 µM | TGI (NCI-H522): 3.2 µM | growth at 0.01 µM (SNB-19): 97% | LC50 (TK-10): > 100 µM | TGI (TK-10): 5.77 µM | growth at 1 µM (A549): 86% | growth at 0.01 µM (A498 [3]): 98% | growth at 10 µM (IGROV-1): -47% | growth at 0.01 µM (MDA-MB-468): 89% | growth at 0.1 µM (SR [4]): 83% | growth at 1 µM (MDA-MB-231): 81% | growth at 0.01 µM (SK-OV-3): 100% | growth at 100 µM (U-251): -25% | LC50 (RPMI-8226): > 100 µM | TGI (RPMI-8226): 2.49 µM | pIC50 (MCF7 [5]): 6.09 | growth at 10 µM (BT-549): -65% | growth at 10 µM (UACC-62 [6]): -74% | growth at 100 µM (A498 [7]): -34% | growth at 100 µM (UACC-257 [8]): -4% | LC50 (UO-31 [9]): 5.59 µM | TGI (UO-31 [9]): 2.84 µM | growth at 0.01 µM (MOLT-4): 103% | TGI (SR [10]): 23.9 µM | CC50 (SR [10]; read-out: LC50 (the source's name)): > 100 µM | growth at 0.01 µM (786-0 [11]): 98% | growth at 0.01 µM (SW-620): 99% | growth at 0.01 µM (DU-145): 102% | TGI (UACC-62 [12]): 3.65 µM | growth at 0.1 µM (OVCAR-3): 101% | growth at 0.1 µM (RXF 393): 90% | growth at 0.1 µM (SK-MEL-5): 99% | growth at 0.01 µM (NCI-H226): 99% | growth at 10 µM (UO-31 [13]): -93% | TGI (786-0 [14]): 4.13 µM | growth at 1 µM (A498 [15]): 84%
